Source: ChEMBL document CHEMBL1152311, “A multipronged approach to the study of peruvian ethnomedicinal plants: a legacy of the ICBG-Peru Project” (J Nat Prod, 2009)
Active and inactive are the calls of the source. The rule behind the calls is not given here.

Tests used:
DU-145 = test: Cytotoxicity against human DU145 cells; format: functional
[1] = Cytotoxicity against mouse 3T3 cells; format: cell-based; settings: BALB/3T3 clone A31 cells
ME-180 = test: Cytotoxicity against human ME180 cells; format: functional
Saccharomyces cerevisiae [2] = test: Antimicrobial activity against Saccharomyces cerevisiae RS322; format: functional
Saccharomyces cerevisiae [3] = test: Antimicrobial activity against Saccharomyces cerevisiae RS321; format: functional
NCI-H460 = test: Cytotoxicity against human H460 cells; format: functional
PC-3 = test: Cytotoxicity against human PC3 cells; format: functional
M14 = test: Cytotoxicity against human M14 cells; format: functional
MCF7 = test: Cytotoxicity against human MCF7 cells; format: functional
HT-29 = test: Cytotoxicity against human HT-29 cells; format: functional
[4] = Cytotoxicity against african green monkey Vero cells; format: cell-based; settings: chlorocebus sabaeus
K562 = test: Cytotoxicity against human K562 cells; format: functional
[5] = tested on: Mycobacterium tuberculosis; test: Antituberculosis activity against Mycobacterium tuberculosis H37Rv; format: functional, organism-based
Leishmania amazonensis = test: Antileishmanial activity against Leishmania amazonensis axenic amastigotes; format: functional
Mus musculus = species: Mus musculus; test: Wound healing activity in mouse; format: functional
Trypanosoma cruzi = test: Antitrypanosomal activity against Trypanosoma cruzi Tulahuen C4 transfected with beta-galactosidase; format: functional

Structure (SMILES) | GI50 (DU-145) | GI50 [1] | GI50 (ME-180) | IC12 (Saccharomyces cerevisiae [2]) | IC12 (Saccharomyces cerevisiae [3]) | GI50 (NCI-H460) | GI50 (PC-3) | GI50 (M14) | GI50 (MCF7) | GI50 (HT-29) | GI50 [4] | GI50 (K562) | Activity [5] | Activity (Leishmania amazonensis) | ED50 (Mus musculus) | Activity (Trypanosoma cruzi)
COC(=O)C1=CO[C@H](C)[C@@H]2CN3CC[C@@]4(C(=O)Nc5ccccc54)[C@H]3C[C@@H]12 [UNCARINE E] | 114 µM | 62.4 µM | 67.9 µM | 380 µM | 326 µM | 46.1 µM |  |  |  |  |  |  |  |  |  | 
COc1ccc(CCC(=O)c2c(O)cc(O)cc2OC)cc1 | 138 µM | 141 µM |  |  |  | 148 µM | 153 µM | 133 µM | 75.7 µM | 117 µM | 134 µM | 24.5 µM |  |  |  | 
C/C=C1/C(=O)O[C@]23C=C[C@@H]4C(C(=O)OC)=CO[C@H](O[C@@H]12)[C@@H]43 [PLUMERICIN] | > 430 µM | 431 µM | > 430 µM |  | 241 µM | 276 µM |  |  | > 430 µM | > 430 µM |  |  | inactive | 5 µM |  | 
CC(C)=CCC[C@](C)(O)[C@H]1CC=C(C)CC1 | 25.8 µM | 54.7 µM | 18.2 µM |  |  | 32.8 µM | 28.5 µM | 15.1 µM | 30 µM | 28.9 µM |  | 40.5 µM |  |  | 155 mg/kg | 
C[C@H](C/C=C\C(C)(C)OO)[C@H]1CC[C@@]2(C)[C@@H]3CC[C@H]4C(C)(C)[C@@H](O)CC[C@@]45C[C@@]35CC[C@]12C | 78.7 µM | 82.6 µM |  |  |  | 67.4 µM | > 136 µM | 58.6 µM | > 136 µM | 65.2 µM | > 136 µM | 65.2 µM | inactive | 5.2 µM |  | 
C=CCOc1cc(OC)c(C(=O)/C=C/c2ccc(OC)cc2)c(OCC=C)c1 | 54.9 µM | 107 µM |  |  |  | 52.3 µM | 47.3 µM | 72.2 µM | 51 µM | 74.3 µM |  | 43.4 µM |  |  |  | 1.5 µM
